Measured values as given in US20040200144A1, “Plant growth regulator and a method of producing the regulator” (Dainichiseika Color & Chemicals Mfg. Co., Ltd., priority 2003, published 2004).

Experiments:
Format in all cases: in vivo
[1] = test system: Chinese cabbage young plants; experiment: Dwarfing test of Chinese cabbage young plant; details: for Plant Height / Dwarfing Rate: 5 ml per cell on 4th day, measured 22nd day; for Dwarfing Rate: vs comparative group
Procedure: Dwarfing rate (%)=[(the plant height of the comparative group)−(the plant height of an addition group)/the plant height of the comparative group]×100
18.4 g of potassium hydroxide was dissolved in 400 ml of distilled water at 20° C., 50 g of cinnamic acid was added to the potassium hydroxide solution and dissolved by stirring, the resultant solution was diluted with distilled water until the total volume of solution was 500 ml, and thus 10% cinnamic acid aqueous solution (pH 8.8) was prepared. The aqueous solution was further diluted with distilled water 100 times or 33.3 times, and 0.1% cinnamic acid aqueous solution and 0.3% cinnamic acid aqueous solution were prepared, respectively.
Nursery soil for house use was filled into a polyethylene joint pot (36 cells: 45×45×30 mm/cell), water was sufficiently given to the soil, and seeds of Chinese cabbage were sowed. After seeding, the pot was placed in the same greenhouse as described above to sprout. Subsequently, on the 4th day, the cinnamic aqueous acid solutions were added to the nursery soil in the joint pot.
Among 36 cells, 12 cells were prepared as a 0.1% cinnamic acid aqueous solution addition group, and 5 ml of the 0.1% cinnamic acid aqueous solution was added to the nursery soil of each cell. Another 12 cells were prepared as a 0.3% cinnamic acid aqueous solution addition group, and 5 ml of the 0.3% cinnamic acid aqueous solution was added to the nursery soil of each cell. Remaining 12 cells were prepared as a comparative group in which 5 ml of water is added to each cell, instead of the cinnamic acid aqueous solution. Subsequently, the cultivation of Chinese cabbage young plants in each group was continued under general conditions. On the 22nd day, the heights of young plants in each group were measured, the dwarfing rate (%) was calculated, and the dwarfing effect of cinnamic acid aqueous solution on Chinese cabbage young plants was examined. […]

green onion young plants = experiment: Dwarfing test of green onion young plant; details: for Plant Height / Dwarfing Rate: 5 ml per cell on 5th day, measured 27th day; for Dwarfing Rate: vs comparative group
Procedure: (§1) 50 g of sodium tripolyphosphate was dissolved in 400 ml of distilled water at 80° C., 17.5 g of cinnamic acid was added to the sodium tripolyphosphate solution and dissolved by stirring, the resultant solution was diluted with distilled water until the total volume of solution was 500 ml, and thus 3.5% cinnamic acid aqueous solution (pH 6.5) was prepared. The aqueous solution was further diluted with distilled water 70 times or 17.5 times, and 0.05% cinnamic acid aqueous solution and 0.2% cinnamic acid aqueous solution were prepared, respectively.
(§2) Nursery soil for house use was filled into paper joint pots (each with 24 cells: 34×43×50 mm/cell), water was sufficiently given to the soil, and seeds of carrots were sowed. After seeding, the pot was placed in the same greenhouse as described above to sprout. Subsequently, on the 5th day, the cinnamic aqueous acid solutions were added to the nursery soil in the joint pots. One of the joint pots (24 cells) was prepared as a 0.05% cinnamic acid aqueous solution addition group, and 5 ml of the 0.05% cinnamic acid aqueous solution was added to the nursery soil of each cell. Another one of the join pots was prepared as a 0.2% cinnamic acid aqueous solution addition group, and 5 ml of the 0.2% cinnamic acid aqueous solution was added to the nursery soil of each cell. The other one of the joint pots was prepared as a comparative group in which 5 ml of water is added to each cell, instead of the cinnamic acid aqueous solution. Subsequently, the cultivation of carrot young plants in each group was continued under general conditions. On the 27th day, the heights of young plants in each group were measured, the dwarfing rate (%) was calculated, and the dwarfing effect of cinnamic acid aqueous solution on carrot young plants was examined. […].
In the same way as in Example 5 except that seeds of green onion were sowed, the dwarfing effect of cinnamic acid aqueous solution on green onion young plants was examined. […]

tomato young plants = experiment: Dwarfing test of tomato young plant; details: for Plant Height / Dwarfing Rate: 5 ml per cell on 7th day, measured 20th day; for Dwarfing Rate: vs comparative group
Procedure: as §1, §2
In the same way as in Example 12 except that seeds of tomato were sowed, and that the cinnamic acid solutions were added to the nursery soil of the joint pot on the 7th day, the dwarfing effect of cinnamic acid aqueous solution on tomato young plants was examined. […]

melon young plants = experiment: Dwarfing test of melon young plant; details: for Plant Height / Dwarfing Rate: 5 ml per cell on 7th day, measured 25th day; for Dwarfing Rate: vs comparative group
Procedure: After seeding, the pot was placed in the same greenhouse as described above to sprout. Subsequently, on the 5th day, the cinnamic aqueous acid solutions were added to the nursery soil in the joint pots. One of the joint pots (24 cells) was prepared as a 0.05% cinnamic acid aqueous solution addition group, and 5 ml of the 0.05% cinnamic acid aqueous solution was added to the nursery soil of each cell. Another one of the join pots was prepared as a 0.2% cinnamic acid aqueous solution addition group, and 5 ml of the 0.2% cinnamic acid aqueous solution was added to the nursery soil of each cell. […] Subsequently, the cultivation of carrot young plants in each group was continued under general conditions. On the 27th day, the heights of young plants in each group were measured, the dwarfing rate (%) was calculated, and the dwarfing effect of cinnamic acid aqueous solution on carrot young plants was examined. From the results in Table 5, it became evident that the 0.05% and 0.2% cinnamic acid aqueous solutions are effective in dwarfing carrot young plants. In the same way as in Example 5 except that seeds of cauliflower were sowed, the cinnamic acid solutions were added to the nursery soil in the joint pot on the 4th day, and that heights of young plants in each group were measured on the 20th day, the dwarfing effect of cinnamic acid aqueous solution on cauliflower young plants was examined. From the results in Table 12, it became evident that the cinnamic acid aqueous solutions are effective in dwarfing cauliflower young plants. In the same way as in Example 12 except that seeds of tomato were sowed, and that the cinnamic acid solutions were added to the nursery soil of the joint pot on the 7th day, the dwarfing effect of cinnamic acid aqueous solution on tomato young plants was examined. From the results in Table 17, it became evident that the cinnamic acid aqueous solutions are effective in dwarfing tomato young plants. In the same way as in Example 17 except that seeds of melon were sowed, and that plant heights were measured on the 25th day, the dwarfing effect of cinnamic acid aqueous solution on melon young plants was examined. From the results in Table 25, it became evident that the cinnamic acid aqueous solutions are effective in dwarfing melon young plants.

Compound: O=C(O)C=Cc1ccccc1 [cinnamic acid]
- Plant Height ([1]; 0.1% aqueous solution): 7.0 cm
- Dwarfing Rate ([1]; 0.1% aqueous solution): 23.9%
- Plant Height ([1]; 0.3% aqueous solution): 6.9 cm
- Dwarfing Rate ([1]; 0.3% aqueous solution): 25.0%
- dwarfing effect ([1]; Chinese cabbage young plants, 0.1% and 0.3% aqueous solutions): effective
- Plant Height (green onion young plants; 0.05% aqueous solution): 7.2 cm
- Dwarfing Rate (green onion young plants; 0.05% aqueous solution): 25.8%
- Plant Height (green onion young plants; 0.2% aqueous solution): 5.6 cm
- Dwarfing Rate (green onion young plants; 0.2% aqueous solution): 42.3%
- dwarfing effect (green onion young plants; green onion young plants, 0.05% and 0.2% aqueous solutions): effective
- Plant Height (tomato young plants; 0.05% aqueous solution): 7.3 cm
- Dwarfing Rate (tomato young plants; 0.05% aqueous solution): 20.7%
- Plant Height (tomato young plants; 0.2% aqueous solution): 6.1 cm
- Dwarfing Rate (tomato young plants; 0.2% aqueous solution): 33.7%
- dwarfing effect (tomato young plants; tomato young plants, 0.05% and 0.2% aqueous solutions): effective
- Plant Height (melon young plants; 0.05% aqueous solution): 6.3 cm
- Dwarfing Rate (melon young plants; 0.05% aqueous solution): 4.5%
- Plant Height (melon young plants; 0.2% aqueous solution): 4.1 cm
- Dwarfing Rate (melon young plants; 0.2% aqueous solution): 37.9%
- dwarfing effect (melon young plants; melon young plants, 0.05% and 0.2% aqueous solutions): effective
